Reference: US20150272863A1, “H3 ANTAGONIST BY-PRODUCT, ITS MANUFACTURE, AND METHOD OF USING BY-PRODUCT TO REDUCE PIGMENTATION IN SKIN” (Active Concepts, LLC, priority 2014, published 2015)
Counter-ions that a name gives are not always drawn.

tested on: mouse melanoma cells (B16F10 cell line); assay: Melanin inhibition assay; assay type: cell-based; conditions: found through experimentation; H3 antagonists
Procedure: The assays utilized mouse melanoma cells (B16F10 cell line) which are very efficient at producing melanin. Various inhibitors and enhancers of melanin synthesis were added to the cultured cells along with experimental samples.
The B16F10 murine melanocytes were seeded into 24-well tissue culture plates and allowed to grow to confluency in complete DMEM. Solutions of H3 antagonists, Arbutin, alpha-Melanocyte Stimulating Hormone (a-MSH), and AA2G were prepared in Complete DMEM. Complete Dulbeco's Modified Eagle Media (DMEM) was used as the untreated control. Additionally, the individual components of the H3 antagonists, Yeast Peptide and Plant Extract, were also analyzed for melanogenic effects. Cells were treated for 72 hours.
For the inhibition assay, the media was removed from the wells and the monolayers were washed with phosphate buffered saline (PBS). NaOH was added to each well and 100 μL of each solution were added to a 96-well plate in duplicate. The plate was measured by optical density readings at 400 nm.
As discussed above, skin pigmentation is determined by the amount of melanin in the skin which is produced by […] melanocytes. In addition to the melanin inhibition study comparing the fermented plant abstract to AA2G, Arbutin, α-MSH, and Kojic acid, a melanin inhibition study was conducted to compare the fermented plant extract with its individual components—peptide from yeast and plant extract—to assess their ability to inhibit melanin synthesis. The melanin assay was conducted using the same methodogies as discussed above with respect to H3 antagonists, in general.

SMILES | suitability to reduce or eliminate pigmentation in a users skin
Br.Br.C[C@@H](N)Cc1c[nH]cn1 [(R)-(-)-a-Methylhistamine dihydrobromide] | suitable for use as a by-product in cosmetics to reduce or eliminate pigmentation
C[C@H]1[C@H]2CC[C@H]3[C@@H]4CC=C5C[C@@H](N(C)C)CC[C@]5(C)[C@H]4CC[C@]23CN1C [Conessine] | suitable for use as a by-product in cosmetics to reduce or eliminate pigmentation
N=C(N)SCCc1cnc[nH]1 [Imetit dihydrobromide] | suitable for use as a by-product in cosmetics to reduce or eliminate pigmentation
NCCCCCc1cnc[nH]1 [Impentamine dihydrobromide] | suitable for use as a by-product in cosmetics to reduce or eliminate pigmentation
